The target of one series is T1, hM1 (Homo sapiens, UniProt P11229).
T1 construct: host or cells: CHO-K1, stably transfected
T1 sequence (P11229 1-460): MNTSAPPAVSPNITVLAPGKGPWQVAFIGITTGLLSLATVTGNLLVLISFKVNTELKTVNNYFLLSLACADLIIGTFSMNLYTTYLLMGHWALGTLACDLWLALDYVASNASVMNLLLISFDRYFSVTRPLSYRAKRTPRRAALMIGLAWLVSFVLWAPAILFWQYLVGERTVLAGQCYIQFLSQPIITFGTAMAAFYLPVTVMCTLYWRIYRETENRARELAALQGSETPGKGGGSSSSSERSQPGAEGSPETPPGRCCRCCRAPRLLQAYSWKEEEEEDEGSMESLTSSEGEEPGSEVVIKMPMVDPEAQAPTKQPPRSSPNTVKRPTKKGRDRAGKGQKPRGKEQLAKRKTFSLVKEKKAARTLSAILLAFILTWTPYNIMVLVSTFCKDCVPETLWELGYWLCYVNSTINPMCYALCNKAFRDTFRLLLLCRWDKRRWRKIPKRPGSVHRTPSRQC
Briefly: Competitive [3H]NMS radioligand binding, CHO-hM1 cell membranes. As to conditions: for Ki: inhibition of [3H]NMS binding, CHO-hM1 membranes, read-out: Affinity: Ki ± SD, hM1; for Displacement ± SD of [3H]NMS binding, hM1: single ligand concentration corresponding to a Ki of 1 µM (Cheng-Prusoff). The method, then:
(§1) We first assessed the carbamates’ affinities for human muscarinic acetylcholine receptors subtypes hM1–5 by means of a competitive radioligand binding assay displacing [N-methyl-^3H]scopolamine methyl chloride ([^3H]NMS) in cell membranes expressing the individual receptors.
(§2) Cell membranes bearing hM1-hM5 receptors were prepared as described previously. Briefly, stably transfected CHO-K1 cells were grown to at least 80% confluency in T175 flasks, washed with ice-cold DPBS, and scraped into a mixture of ice-cold of 2 mL 10 mM Tris-HCl, 1 mM EDTA-buffer, pH 7.4 and 200 µL protease inhibitor. A cell homogenate was prepared by passing the cell suspension through a G29 needle. The cell homogenates corresponding to two T175 flasks were combined and subsequently centrifuged (10 min, 1000 × g, 4 °C). Ultracentrifugation of the supernatant (1 h, 100,000 × g, 4 °C) yielded a membrane pellet, which was suspended in 250 µL 50 mM Tris-HCl buffer, pH 7.4 and stored at −80 °C.
(§3) Maximum binding was measured by using 5 µL DMSO, and nonspecific binding was measured by using 5 µL of 1 µM scopolamine in DMSO. […] The membrane-bound radioactivity was recovered by filtration through Whatman™ GF/B glass fibre filters pre-soaked in aqueous 0.1% PEI using an M-36 tygon tubed cell harvester (Brandel®, Gaithersburg, MD, USA). Membranes were washed 3 times with ice-cold washing buffer (50 mM Tris, pH 7.4) before being dried, transferred to 2 mL scintillation cocktail (UltimaGold™, high flashpoint LSC cocktail, PerkinElmer, Waltham, MA, USA) and counted in a β -counter (Hidex TDCR Liquid Scintillation Counter in CPM mode). IC50 values were calculated by a variable slope logistic regression using at least five distinct concentrations of test compounds, pipetted in triplicates.

In a further series the target is T2, hM5 (Homo sapiens, UniProt P08912).
T2 construct: host or cells: CHO-K1, stably transfected
T2 sequence (P08912 1-532): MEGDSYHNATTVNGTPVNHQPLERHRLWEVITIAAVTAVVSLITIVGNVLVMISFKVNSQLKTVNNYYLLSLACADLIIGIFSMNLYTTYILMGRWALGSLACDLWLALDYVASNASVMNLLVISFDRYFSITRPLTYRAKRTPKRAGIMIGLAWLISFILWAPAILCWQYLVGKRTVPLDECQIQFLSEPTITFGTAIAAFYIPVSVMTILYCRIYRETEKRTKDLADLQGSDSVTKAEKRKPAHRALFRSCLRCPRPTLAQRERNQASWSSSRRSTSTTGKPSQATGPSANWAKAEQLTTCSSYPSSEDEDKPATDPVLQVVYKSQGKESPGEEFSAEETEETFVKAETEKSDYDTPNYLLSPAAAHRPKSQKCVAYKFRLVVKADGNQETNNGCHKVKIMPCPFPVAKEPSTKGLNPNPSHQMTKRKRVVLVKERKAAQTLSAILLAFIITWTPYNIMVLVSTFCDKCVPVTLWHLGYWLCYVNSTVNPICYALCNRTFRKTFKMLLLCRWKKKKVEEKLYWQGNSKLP
Briefly: Competitive [3H]NMS radioligand binding, CHO-hM5 cell membranes. As to conditions: for Ki: inhibition of [3H]NMS binding, CHO-hM5 membranes, read-out: Affinity: Ki ± SD, hM5; for Displacement ± SD of [3H]NMS binding, hM5: single ligand concentration corresponding to a Ki of 1 µM (Cheng-Prusoff). How it is done:
as §1, §2, §3

Another series deals with T3, hM4 (Homo sapiens, UniProt P08173).
T3 construct: host or cells: CHO-K1, stably transfected
T3 sequence (P08173 1-479): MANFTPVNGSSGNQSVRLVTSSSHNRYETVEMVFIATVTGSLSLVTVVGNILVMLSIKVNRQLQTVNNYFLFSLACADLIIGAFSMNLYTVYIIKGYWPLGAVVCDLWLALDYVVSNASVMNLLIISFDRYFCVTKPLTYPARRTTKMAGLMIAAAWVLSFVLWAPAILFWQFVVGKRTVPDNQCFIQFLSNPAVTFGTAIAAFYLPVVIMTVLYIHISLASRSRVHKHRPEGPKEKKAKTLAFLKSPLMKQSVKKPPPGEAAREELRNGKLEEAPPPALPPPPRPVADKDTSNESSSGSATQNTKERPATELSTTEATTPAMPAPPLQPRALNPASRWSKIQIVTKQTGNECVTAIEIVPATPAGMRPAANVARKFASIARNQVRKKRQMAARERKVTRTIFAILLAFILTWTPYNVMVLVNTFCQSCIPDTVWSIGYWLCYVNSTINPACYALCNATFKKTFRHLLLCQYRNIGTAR
Briefly: Competitive [3H]NMS radioligand binding, CHO-hM4 cell membranes. The settings on record: for Ki: inhibition of [3H]NMS binding, CHO-hM4 membranes, read-out: Affinity: Ki ± SD, hM4; for Displacement ± SD of [3H]NMS binding, hM4: single ligand concentration corresponding to a Ki of 1 µM (Cheng-Prusoff). How it is done: as §1, §2, §3

Another series has as its target T4, hM3 (Homo sapiens, UniProt P20309).
T4 construct: host or cells: CHO-K1, stably transfected
Briefly: Competitive [3H]NMS radioligand binding, CHO-hM3 cell membranes. The settings on record: for Ki: read-out: Affinity: Ki ± SD, hM3; for Displacement ± SD of [3H]NMS binding, hM3: single ligand concentration corresponding to a Ki of 1 µM (Cheng-Prusoff). How it is done:
as §1, §2, §3

A short description of series [1]: High throughput HPLC-logD (lipophilicity). As to conditions: pH 7.4.
Procedure: Briefly, a mixture of toluene (≥98%, Sigma-Aldrich, St. Louis, MO, USA) and triphenylene (≥99.9%, Carl Roth, Karlsruhe, Germany) was used as internal standard. Each sample was dissolved in the internal standard mixture. Using gradient elution, the injection volume was set to 7 µL, the flow rate was 1.5 mL/min, and the mobile phase consisted of a mixture of methanol and 0.01 M sodium phosphate buffer pH 7.4. The HPLC-logD values were derived from the measured retention times following the previously published equation [27, 30].
The next series concerns the target T5, hM2 (Homo sapiens, UniProt P08172).
T5 construct: host or cells: CHO-K1, stably transfected
T5 sequence (P08172 1-466): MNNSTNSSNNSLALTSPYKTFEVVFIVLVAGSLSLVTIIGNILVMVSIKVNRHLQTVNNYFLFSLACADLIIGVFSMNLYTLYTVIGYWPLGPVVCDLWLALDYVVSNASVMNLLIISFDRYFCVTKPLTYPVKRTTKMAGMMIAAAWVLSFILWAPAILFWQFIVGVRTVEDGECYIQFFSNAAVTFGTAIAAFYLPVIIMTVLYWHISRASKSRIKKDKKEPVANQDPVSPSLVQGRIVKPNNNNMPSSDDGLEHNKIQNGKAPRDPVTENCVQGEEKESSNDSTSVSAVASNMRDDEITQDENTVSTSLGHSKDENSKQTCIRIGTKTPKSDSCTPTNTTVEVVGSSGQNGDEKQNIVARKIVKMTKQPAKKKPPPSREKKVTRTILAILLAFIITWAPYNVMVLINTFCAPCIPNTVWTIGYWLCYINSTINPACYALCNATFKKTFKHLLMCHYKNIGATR
Briefly: Competitive [3H]NMS radioligand binding, CHO-hM2 cell membranes. The settings on record: for Ki: read-out: Affinity: Ki ± SD, hM2; for Displacement ± SD of [3H]NMS binding, hM2: single ligand concentration corresponding to a Ki of 1 µM (Cheng-Prusoff). How it is done: as §1, §2, §3

Series [2] is described as follows: Stability in fully supplemented RPMI1640 cell culture medium. Type of series: in vitro ADME. The settings on record: fully supplemented RPMI1640, ambient temperature, after 24 h. The method, then:
Since the decomposition in cell culture medium of compounds designated for biological testing could impair potential assay readouts, the stabilities of one tertiary carbamate (3) and one secondary carbamate (7) were investigated as representatives for the compound set 1–12. Gratifyingly, the rate of decomposition in fully supplemented RPMI1640 cell culture medium at ambient temperature has been fairly slow, with > 95% of both compounds remaining intact after 24 h (Supplementary Materials, Figure S3). Such stability is adequate with the requirements for carbon-11 labelled PET tracers of around 2–3 half-lives.
The stabilities of 3 and 7 were measured using the HPLC gradient method as described for the purity determination. 4 µL of a test compound’s stock solution in DMSO was diluted with fully supplemented RPMI1640 cell culture medium (10% FBS, 1% L-glutamine, without antibiotics). The stability was measured at ambient temperature and the column oven was set to 20 °C. The samples were measured at 0, 30, 60, 120 min and 24 h.

T4 sequence (P20309 whole entry): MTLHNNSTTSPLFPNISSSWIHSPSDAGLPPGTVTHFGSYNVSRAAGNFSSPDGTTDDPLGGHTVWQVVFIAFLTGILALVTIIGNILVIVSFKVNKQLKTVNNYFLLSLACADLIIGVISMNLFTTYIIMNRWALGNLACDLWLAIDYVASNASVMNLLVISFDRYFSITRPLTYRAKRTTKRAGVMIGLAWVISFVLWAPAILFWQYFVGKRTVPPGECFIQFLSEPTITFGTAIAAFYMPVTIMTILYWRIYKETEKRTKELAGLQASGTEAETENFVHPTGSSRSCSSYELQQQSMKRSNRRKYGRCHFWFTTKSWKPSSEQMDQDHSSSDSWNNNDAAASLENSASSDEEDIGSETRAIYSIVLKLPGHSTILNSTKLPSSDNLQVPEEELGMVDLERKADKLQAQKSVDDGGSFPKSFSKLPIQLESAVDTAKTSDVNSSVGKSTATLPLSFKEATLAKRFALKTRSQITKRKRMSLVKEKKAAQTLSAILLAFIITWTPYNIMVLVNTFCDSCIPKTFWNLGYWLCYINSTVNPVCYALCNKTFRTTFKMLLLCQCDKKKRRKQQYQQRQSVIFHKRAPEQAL

The Ki is a dissociation constant, usually derived from enzyme kinetics or from competition with a known ligand. The term chromatographic logD denotes lipophilicity estimated from chromatographic retention. A low value points to a more hydrophilic compound. For the compound `CN1CCC(CNC(=O)OC(c2ccc(F)cc2)c2ccc(F)cc2)C1` (centres unmarked) [Compound 10, Bis(4-fluorophenyl)methyl ((1-methylpyrrolidin-3-yl)methyl)carbamate], the Ki was 239 ± 67.9 nM at hM1; 295 ± 32.8 nM at hM5; 238 ± 104 nM on hM4; 277 ± 45.4 nM on hM3; over 1000 nM at hM2. The “x-Fold selectivity for hM1 vs. hM5” value at hM5 (ratio of Ki values hM5/hM1) was determined as 1.2 fold. The “x-Fold selectivity for hM1 vs. hM4” value on hM4 (ratio of Ki values hM4/hM1) came to 1.0 fold. Also, the “x-Fold selectivity for hM1 vs. hM3” value on hM3 (ratio of Ki values hM3/hM1) came to 1.2 fold. Besides, the chromatographic logD in series [1] worked out at 2.69 ± 0.01. In addition, on hM2 (ratio of Ki values hM2/hM1), the “x-Fold selectivity for hM1 vs. hM2” value was over 4 fold.
Regarding `CN1CC2CC1CN2C(=O)OC(c1ccc(F)cc1)c1ccc(F)cc1` (centres unmarked) [Compound 3, Bis(4-fluorophenyl)methyl5-methyl-2,5-diazabicyclo[2.2.1]heptane-2-carboxylate], the Ki on hM1 was 33.1 ± 8.1 nM; on hM5 it was 68 ± 22.1 nM; at hM4 it was 115 ± 51 nM; at hM3 it was 358 ± 83 nM; at hM2 it was over 1000 nM. The “Compound remaining intact in cell culture medium” value in series [2] is over 95%. In addition, the chromatographic logD in series [1] was found to be 2.69 ± 0.01.
As to `CN1CCC(NC(=O)OC(c2ccc(F)cc2)c2ccc(F)cc2)CC1` [Compound 6, Bis(4-fluorophenyl)methyl (1-methylpiperidin-4-yl)carbamate], the “Displacement ± SD of [3H]NMS binding, hM1” value on hM1 is 52 ± 8%. Besides, the “Displacement ± SD of [3H]NMS binding, hM5” value on hM5 is 54 ± 8%. In addition, on hM4, the “Displacement ± SD of [3H]NMS binding, hM4” value was 48 ± 9%. At hM3, the “Displacement ± SD of [3H]NMS binding, hM3” value is reported as 29 ± 5%. This compound also showed a chromatographic logD in series [1] of 3.25 ± 0.04. Moreover, the “Displacement ± SD of [3H]NMS binding, hM2” value on hM2 came to 10 ± 7%.
For the compound `CN1CCCC1CCNC(=O)OC(c1ccc(F)cc1)c1ccc(F)cc1` (centres unmarked) [Compound 11, Bis(4-fluorophenyl)methyl (2-(1-methylpyrrolidin-2-yl)ethyl)carbamate], the “Displacement ± SD of [3H]NMS binding, hM1” value at hM1 was found to be 53 ± 8%. Besides, the “Displacement ± SD of [3H]NMS binding, hM5” value at hM5 worked out at 59 ± 17%. Also, the “Displacement ± SD of [3H]NMS binding, hM4” value on hM4 turned out to be 54 ± 13%. The “Displacement ± SD of [3H]NMS binding, hM3” value on hM3 is 62 ± 3%. In addition, the chromatographic logD in series [1] worked out at 2.5 ± 0.3. Moreover, the “Displacement ± SD of [3H]NMS binding, hM2” value on hM2 is reported as 37 ± 15%.
Take `CN1CCCN(C(=O)OC(c2ccc(F)cc2)c2ccc(F)cc2)CC1` [Compound 2, Bis(4-fluorophenyl)methyl 4-methyl-1,4-diazepane-1-carboxylate]: the inhibition constant (Ki) was determined as 1.2 ± 0.4 nM on hM1; 4.8 ± 1.6 nM on hM5; 14.4 ± 5.5 nM on hM4; 28.4 ± 10.7 nM on hM3; 227 ± 85.9 nM on hM2. The chromatographic logD in series [1] was 3.2 ± 0.02.

For the origin of these results see article PMC8879200, “Design, Synthesis, and Biological Evaluation of 4,4’-Difluorobenzhydrol Carbamates as Selective M1 Antagonists” (Pharmaceuticals, 2022).
